Test results taken from patent US7671026B2, “Cytomodulating peptides for treating interstitial cystitis” (Sangstat Medical Corporation, priority 2002, dated 2010).

Assays:
[1] = test system: TNF-α; assay: Ex vivo LPS-stimulated bladder tissue culture, TNF-α ELISA; assay type: cell-based, mice; conditions: first study; BALB/c bladder tissue, 1 ug LPS + RDP58 50 uM final, 18 hrs, each pool
Protocol: The ability of RDP58 peptide bc-1nL in inhibiting cytokine production in bladder cells was examined. In a first study, BALB/c mice were euthanized with CO2 and the bladders harvested after voiding it of urine. Bladders were gently washed with RMPI 1640 media containing penicillin and streptomycin and minced into 1-2 mm pieces. Equal amounts of tissue were incubated overnight at 37° C. in 0.5 ml of RPMI culture medium in the presence of 1 ug LPS (E. coli. 055:B5; Sigma), 50 ul of RDP58 peptide (1 mg/ml) (50 uM final concentration), 1 ug LPS+50 ul of RDP58 peptde, or media alone. The culture supernatants were collected after 18 hrs, clarified by centrifugation, and assayed by ELISA for cytokines TNF-αand IFN-γ.
In a second study, bladders from 12 normal mice were harvested, pooled into four sets of three bladders, and the tissues minced into 1-2 mm pieces. Equal amounts of tissue were incubated overnight in culture media containing LPS, RDP58 peptide, LPS+RDP58 peptide, or media, as described above. After clarifying the culture medium by centrifugation, supernatants were assayed for presence of TNF-α by ELISA.

[2] = test system: CD3 positive cells; assay: Chronic interstitial cystitis model, CD3/CD45 immunostaining of bladder sections; assay type: in vivo, mice; conditions: animals exposed to LPS, then RDP58; 24 hrs and 72 hrs after RDP58 treatment
Protocol: Chronic IC model was induced in mice by transurethrally catheterizing mice and instilling with 15 ug of E.coli. lipopolysaccharide (LPS) in 150 ul. Controls were instilled with 150 ul of saline. Animals were treated three times per week for two weeks. To determine the effect of RDP58, animals were instilled with the peptide following 14 days of LPS instillation. Histological analyses of the bladders were carried out 24 or 72 hrs post treatment. Cytokine levels were assayed by removing the bladder 24 hrs following RDP58 treatment, culturing the tissue ex vivo, and assaying for cytokines, as described above. Bladder permeability used the FITC-dextran assay.
Bladder from the various animal groups were removed after the treatments and then sectioned. Morphology was examined by staining with haematoxylin-eosin. Sections were examined for the presence of T-cell differentiation markers CD3 or CD45 by immunostaining with anti-CD45 and anti-CD3 antibodies.

## Arg-nL-nL-nL-Arg-nL-nL-nL-Gly-Tyr [RDP58]
[1]
  inhibition of TNF-α production: about 30%
[2]
  CD3 positive cells in bladder tissue sections: reduction of CD3 positive cells
